In US12065404B2, “C4-carboxylic acid-substituted tryptamine derivatives and methods of using” (priority 2022, dated 2024):
Where “and” joins values, the source holds several entries; their conditions need not be identical. Identical values can stand only once.

Experiments:
[1] = Mouse pharmacokinetic (PK) study, parent compound and psilocin metabolite in plasma; type: in vivo, C57Bl/6 mice; settings: for bioavailability: male, C57Bl/6, mouse, plasma, po
Source text: Briefly, the procedure was as follows. […] 19, 2022.

GABAA = GABAA (Homo sapiens, UniProt P14867+P18507+P47870); type: cell-based; settings: ion channel
[2] = administered compound itself in plasma, 1 mg/kg i.v., individual animals, 1 mg/kg
[3] = administered compound itself in plasma, 1 mg/kg i.v., mean ± SD
[4] = administered compound itself in plasma, 1 mg/kg oral, individual animals, 1 mg/kg
[5] = administered compound itself in plasma, 1 mg/kg oral, mean ± SD, 1 mg/kg
[6] = administered compound itself in plasma, 3 mg/kg oral, individual animals, 3 mg/kg
[7] = administered compound itself in plasma, 3 mg/kg oral, mean ± SD
[8] = administered compound itself in plasma, 3 mg/kg oral, mean ± SD, 3 mg/kg
[9] = administered compound itself in plasma, 10 mg/kg oral, individual animals, 10 mg/kg
[10] = administered compound itself in plasma, 10 mg/kg oral, mean ± SD

Chain of GABAA (P14867 28-456): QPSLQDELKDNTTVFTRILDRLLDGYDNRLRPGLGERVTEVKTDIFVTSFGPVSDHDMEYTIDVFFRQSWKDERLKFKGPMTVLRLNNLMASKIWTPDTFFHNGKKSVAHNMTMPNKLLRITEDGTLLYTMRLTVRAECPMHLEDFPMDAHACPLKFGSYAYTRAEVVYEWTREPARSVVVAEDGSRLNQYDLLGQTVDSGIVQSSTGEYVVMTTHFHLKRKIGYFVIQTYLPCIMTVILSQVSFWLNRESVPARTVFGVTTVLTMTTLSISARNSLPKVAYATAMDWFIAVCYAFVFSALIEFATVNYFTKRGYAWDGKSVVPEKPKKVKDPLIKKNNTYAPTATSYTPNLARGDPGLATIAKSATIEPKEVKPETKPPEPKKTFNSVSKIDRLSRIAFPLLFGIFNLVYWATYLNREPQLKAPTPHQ
Chain of GABAA (P47870 26-512): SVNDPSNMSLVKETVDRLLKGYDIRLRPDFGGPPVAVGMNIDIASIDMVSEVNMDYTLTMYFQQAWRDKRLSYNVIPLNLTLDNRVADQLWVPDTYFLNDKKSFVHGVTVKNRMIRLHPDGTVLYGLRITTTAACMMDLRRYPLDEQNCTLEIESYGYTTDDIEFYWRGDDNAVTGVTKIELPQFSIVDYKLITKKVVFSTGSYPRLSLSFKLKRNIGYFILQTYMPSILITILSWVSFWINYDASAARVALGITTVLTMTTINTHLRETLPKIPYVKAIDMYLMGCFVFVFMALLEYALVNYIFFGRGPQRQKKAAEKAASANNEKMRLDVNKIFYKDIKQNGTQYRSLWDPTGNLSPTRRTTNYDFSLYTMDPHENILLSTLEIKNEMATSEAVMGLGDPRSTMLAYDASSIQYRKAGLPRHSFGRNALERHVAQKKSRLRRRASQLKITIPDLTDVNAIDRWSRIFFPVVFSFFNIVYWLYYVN
Chain of GABAA (P18507 40-475): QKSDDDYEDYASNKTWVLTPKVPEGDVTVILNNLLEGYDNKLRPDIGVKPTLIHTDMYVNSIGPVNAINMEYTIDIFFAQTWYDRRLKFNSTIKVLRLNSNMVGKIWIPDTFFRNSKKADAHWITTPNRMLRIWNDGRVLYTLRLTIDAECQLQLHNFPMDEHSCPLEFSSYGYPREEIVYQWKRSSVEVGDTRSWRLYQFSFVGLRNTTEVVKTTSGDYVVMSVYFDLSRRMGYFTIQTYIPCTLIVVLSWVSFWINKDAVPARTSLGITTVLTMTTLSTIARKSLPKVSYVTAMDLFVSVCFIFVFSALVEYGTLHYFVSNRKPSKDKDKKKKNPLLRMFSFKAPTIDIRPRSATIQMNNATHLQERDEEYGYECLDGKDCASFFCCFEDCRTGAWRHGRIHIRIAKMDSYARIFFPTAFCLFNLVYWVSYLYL

Compound: CN(C)CCc1c[nH]c2cccc(OC(=O)c3ccc(Br)cc3)c12 [C(I)]
- F(%), M37 considered as an outlier ([1]; 10 mg/kg oral, AUC0-tlast used for p.o. group, i.v. animal M37 considered an outlier, mean ± SD): 3.22 ± 0.731%
- F(%) ([1]; 10 mg/kg oral, AUC0-tlast used for p.o. group, individual animals): 0.447% and 0.627%
- AUC0-inf [1, 2]: 1014 ng·h/mL and 64.4 ng·h/mL and 51.9 ng·h/mL
- AUC0-inf/Dose [1, 2]: 1014 kg·ng·h/mL/mg and 64.4 kg·ng·h/mL/mg and 51.9 kg·ng·h/mL/mg
- AUC0-tlast [1, 2]: 1006 ng·h/mL and 63.7 ng·h/mL and 51.4 ng·h/mL
- AUC0-tlast/Dose [1, 2]: 1006 kg·ng·h/mL/mg and 63.7 kg·ng·h/mL/mg and 51.4 kg·ng·h/mL/mg
- Apparent t1/2 [1, 2]: 72.6 min and 38.6 min
- C0 [1, 2]: 3792 ng/mL and 168 ng/mL and 132 ng/mL
- CL [1, 2]: 16.4 mL/min/kg and 258.9 mL/min/kg and 321.08 mL/min/kg
- MRT0-inf [1, 2]: 46.8 min and 39.4 min
- Vss [1, 2]: 0.56 L/kg and 12.109 L/kg and 12.65 L/kg
- AUC0-inf/Dose [1, 3]: 377 ± 552 kg·ng·h/mL/mg
- AUC0-tlast/Dose [1, 3]: 374 ± 548 kg·ng·h/mL/mg
- MRT0-inf [1, 3]: 40.1 ± 6.36 min
- AUC0-tlast/Dose ([1]; administered compound itself in plasma, 1 mg/kg i.v., mean, n = 2 (apparently without possible outlier M37)): 57.6 kg·ng·h/mL/mg
- AUC0-tlast [1, 4]: 2.09 ng·h/mL and 0.169 ng·h/mL and 1.75 ng·h/mL
- AUC0-tlast/Dose [1, 4]: 2.09 kg·ng·h/mL/mg and 0.169 kg·ng·h/mL/mg and 1.75 kg·ng·h/mL/mg
- Cmax [1, 4]: 0.816 ng/mL and 0.54 ng/mL and 1.28 ng/mL
- Cmax/Dose [1, 4]: 0.816 kg·ng/mL/mg and 0.54 kg·ng/mL/mg and 1.28 kg·ng/mL/mg
- AUC0-tlast/Dose [1, 5]: 1.34 ± 1.02 kg·ng·h/mL/mg and 1.34 kg·ng·h/mL/mg
- Cmax/Dose [1, 5]: 0.877 ± 0.376 kg·ng/mL/mg and 0.877 kg·ng/mL/mg
- AUC0-tlast [1, 6]: 5.47 ng·h/mL and 5.91 ng·h/mL
- AUC0-tlast/Dose [1, 6]: 1.75 kg·ng·h/mL/mg and 1.82 kg·ng·h/mL/mg and 1.97 kg·ng·h/mL/mg
- Cmax [1, 6]: 2.16 ng/mL and 2.34 ng/mL
- Cmax/Dose [1, 6]: 0.650 kg·ng/mL/mg and 0.720 kg·ng/mL/mg and 0.780 kg·ng/mL/mg
- tmax [1, 6]: 15 min
- AUC0-tlast [1, 7]: 5.54 ± 0.330 ng·h/mL
- Cmax [1, 7]: 2.15 ± 0.195 ng/mL
- AUC0-tlast/Dose [1, 8]: 1.85 ± 0.110 kg·ng·h/mL/mg and 1.85 kg·ng·h/mL/mg
- Cmax/Dose [1, 8]: 0.717 ± 0.0651 kg·ng/mL/mg and 0.717 kg·ng/mL/mg
- AUC0-inf [1, 9]: 24.1 ng·h/mL
- AUC0-tlast [1, 9]: 16.8 ng·h/mL and 23.6 ng·h/mL
- AUC0-tlast/Dose [1, 9]: 1.58 kg·ng·h/mL/mg and 1.68 kg·ng·h/mL/mg and 2.36 kg·ng·h/mL/mg
- Apparent t1/2 [1, 9]: 70.2 min
- Cmax [1, 9]: 7.10 ng/mL and 10.9 ng/mL
- Cmax/Dose [1, 9]: 0.720 kg·ng/mL/mg and 0.710 kg·ng/mL/mg and 1.09 kg·ng/mL/mg
- MRT0-inf [1, 9]: 144 min
- tmax [1, 9]: 30 min
- AUC0-tlast/Dose [1, 10]: 1.87 ± 0.425 kg·ng·h/mL/mg
- Cmax/Dose [1, 10]: 0.840 ± 0.217 kg·ng/mL/mg
- bioavailability ([1]; 1 mg/kg, 1 mg/kg oral, AUC0-tlast used for p.o. group, value might be under-estimated, mean ± SD): 0.355 ± 0.272%
- bioavailability ([1]; 3 mg/kg, 3 mg/kg oral, AUC0-tlast used for p.o. group, value might be under-estimated, individual animals): 0.466%
- bioavailability ([1]; 3 mg/kg, 3 mg/kg oral, AUC0-tlast used for p.o. group, value might be under-estimated, mean ± SD): 0.491 ± 0.0292%
- bioavailability ([1]; 10 mg/kg, 10 mg/kg oral, AUC0-tlast used for p.o. group, individual animals): 0.419%
- bioavailability ([1]; 10 mg/kg, 10 mg/kg oral, AUC0-tlast used for p.o. group, mean ± SD): 0.498 ± 0.113%
- IC50 (GABAA; blocker (BL)): > 100 µM
- EC50 (GABAA; opener (OP)): > 100 µM
